# ChEMBL document CHEMBL1201862, “PubChem BioAssay data set” (2004)
#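 96-well plates; 48 h exposure; 5 concentrations. Endpoints by linear interpolation between flanking doses. Not reached: highest tested concentration assigned. GI50 is the concentration that inhibits growth by half.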 The source made the active and inactive calls. Rule as the data show it: active = GI50 up to about 1.1 µM and inactive = higher.
# What was measured:
# Experiment in all cases: inhibition of tumour cell growth, NCI panel, 48 h
# MOLT-4 = tested on: MOLT-4
# UACC-62 = tested on: UACC-62
# HCT-116 = tested on: HCT-116
# OVCAR-5 = tested on: OVCAR-5
# TK-10 = tested on: TK-10
# OVCAR-8 = tested on: OVCAR-8
# SNB-19 = tested on: SNB-19
# SK-MEL-5 = tested on: SK-MEL-5
# RPMI-8226 = tested on: RPMI-8226
# SN12C = tested on: SN12C
# EKVX = tested on: EKVX
# SK-MEL-2 = tested on: SK-MEL-2
# IGROV-1 = tested on: IGROV-1
# NCI-H226 = tested on: NCI-H226
# KM12 = tested on: KM12
# HCT-15 = tested on: HCT-15
# SF-268 = tested on: SF-268
# DMS-114 = tested on: DMS-114
# K562 = tested on: K562
# NCI-H460 = tested on: NCI-H460
# SF-295 = tested on: SF-295
# M19-MEL = tested on: M19-MEL
# NCI-H23 = tested on: NCI-H23
# HCC 2998 = tested on: HCC 2998
# DLD-1 = tested on: DLD-1
# KM-20L2 = tested on: KM-20L2
# Malme-3M = tested on: Malme-3M
# SNB-78 = tested on: SNB-78
# HL-60 = tested on: HL-60
# M14 = tested on: M14
# COLO 205 = tested on: COLO 205
# UO-31 = tested on: UO-31
# UACC-257 = tested on: UACC-257
# SK-OV-3 = tested on: SK-OV-3
# ACHN = tested on: ACHN
# SW-620 = tested on: SW-620
# SR = tested on: SR
# CCRF-CEM = tested on: CCRF-CEM
# HOP-92 = tested on: HOP-92
# OVCAR-3 = tested on: OVCAR-3
# NCI-H522 = tested on: NCI-H522
# SF-539 = tested on: SF-539
# RXF 631 = tested on: RXF 631
# HOP-18 = tested on: HOP-18
# DMS-273 = tested on: DMS-273
# U-251 = tested on: U-251
# RXF 393 = tested on: RXF 393
# 786-0 = tested on: 786-0
# LXFL 529 = tested on: LXFL 529
# LOX IMVI = tested on: LOX IMVI
# HT-29 = tested on: HT-29
# XF498 = tested on: XF498
# SNB-75 = tested on: SNB-75
structure (smiles),measurement,setting,value
O=C1[C@@H]2C3c4ccccc4C([C@@H]2C(=O)N1c1ccccc1)S3(=O)=O,GI50,MOLT-4,> 100 µM (inactive)
same,GI50,UACC-62,> 100 µM (inactive)
same,GI50,HCT-116,> 100 µM (inactive)
same,GI50,OVCAR-5,> 100 µM (inactive)
same,GI50,TK-10,> 100 µM (inactive)
same,GI50,OVCAR-8,> 100 µM (inactive)
same,GI50,SNB-19,48.8 µM (inactive)
same,GI50,SK-MEL-5,> 100 µM (inactive)
same,GI50,RPMI-8226,> 100 µM (inactive)
same,GI50,SN12C,61.5 µM (inactive)
same,GI50,EKVX,> 100 µM (inactive)
same,GI50,SK-MEL-2,> 100 µM (inactive)
same,GI50,IGROV-1,> 100 µM (inactive)
same,GI50,NCI-H226,> 100 µM (inactive)
same,GI50,KM12,> 100 µM (inactive)
same,GI50,HCT-15,> 100 µM
same,GI50,SF-268,38.9 µM (inactive)
same,GI50,DMS-114,37.9 µM (inactive)
same,GI50,K562,61.4 µM (inactive)
same,GI50,NCI-H460,31.1 µM (inactive)
same,GI50,SF-295,81.7 µM (inactive)
same,GI50,M19-MEL,> 100 µM (inactive)
same,GI50,NCI-H23,> 100 µM (inactive)
same,GI50,HCC 2998,> 100 µM (inactive)
same,GI50,DLD-1,> 100 µM (inactive)
same,GI50,KM-20L2,> 100 µM (inactive)
same,GI50,Malme-3M,> 100 µM (inactive)
same,GI50,SNB-78,> 100 µM (inactive)
same,GI50,HL-60,> 100 µM (inactive)
same,GI50,M14,> 100 µM (inactive)
same,GI50,COLO 205,> 100 µM (inactive)
same,GI50,UO-31,> 100 µM (inactive)
same,GI50,UACC-257,> 100 µM (inactive)
same,GI50,SK-OV-3,> 100 µM (inactive)
same,GI50,ACHN,> 100 µM (inactive)
same,GI50,SW-620,51.4 µM (inactive)
same,GI50,SR,> 100 µM (inactive)
same,GI50,CCRF-CEM,32.1 µM (inactive)
same,GI50,HOP-92,> 100 µM (inactive)
same,GI50,OVCAR-3,> 100 µM (inactive)
same,GI50,NCI-H522,74.3 µM (inactive)
same,GI50,SF-539,> 100 µM (inactive)
same,GI50,RXF 631,26.8 µM (inactive)
same,GI50,HOP-18,> 100 µM (inactive)
same,GI50,DMS-273,> 100 µM (inactive)
same,GI50,U-251,47.2 µM (inactive)
same,GI50,RXF 393,38.1 µM (inactive)
same,GI50,786-0,55.8 µM (inactive)
same,GI50,LXFL 529,> 100 µM (inactive)
same,GI50,LOX IMVI,47.2 µM (inactive)
same,GI50,HT-29,> 100 µM (inactive)
same,GI50,XF498,> 100 µM (inactive)
same,GI50,SNB-75,65.3 µM (inactive)
